Assay results from US10287267B2, “Isoquinolin-3-yl carboxamides and preparation and use thereof” (Samumed, LLC, priority 2016, dated 2019).

Legend:
[1] = system: SW480 colon carcinoma cells; test: Cell viability assay (CellTiter-Glo); format: cell-based, human; settings: Homo sapiens; for EC50: 96 h, SW480 cells, CellTiter-Glo, four days incubation; for inhibition at 10 µM: SW480, read-out: percent inhibition at 10 μM
[2] = system: Tau phosphorylation at Ser396 (pSer396); test: Tau phosphorylation assay (pSer396 ELISA / western blot) in SH-SY5Y cells; format: cell-based, human; settings: Homo sapiens; SH-SY5Y cells, overnight (16-18 h) exposure; read-out: pSer396 Tau EC50;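 note: EC50 for reduction of Tau pSer396 in lysed cells, measured by colorimetric ELISA or chemiluminescent western blot, both using the same pSer396 antibody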
Method: Two days before treatment, cells were seeded onto 96 well plates at 5×10^4 cells/well.
Wells were visually checked for cell death or change in morphology and supernatants were tested for cytotoxicity by measurement of lactate dehydrogenase release (LDH, CytoToxOne kit, Promega) if necessary.
Cells were lysed with RIPA buffer complemented with phosphatase and protease inhibitors then lysates were spun down at 12,000 g for 10 min to remove any cellular debris. Lysates are then either directly tested for pSer396 by ELISA (Life Technology, Kit KHB7031) or loaded on NuPage Bis-Tris gels for western blot analysis. Colorimetric detection of ELISA signal is performed by Cytation3 plate reader (Biotek) and the chemiluminescence signal for HRP-linked antibodies used in western blotting is detected using a Carestream Image Station. The same pSer396 antibody is used for detection of pTau in both assays.

[3] = system: α-smooth muscle actin (αSMA) positive LL29 cells; test: Inhibition of fibrotic process: αSMA in TGF-β1 treated primary human fibroblasts from IPF patients; format: cell-based; settings: Homo sapiens, Fibroblast; for EC50: 96 h, Table 8, LL29 fibroblasts from IPF patients, TGF-β1 20 ng/mL, 4 days, dose-response 10 μM to 0.94 nM; for inhibition at 10 µM: read-out: percent value in parentheses beside EC50 >10 μM;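 for all read-outs here: controls were TGF-β1 stimulated wells with DMSO vehicle (positive) and cells given DMSO alone (negative), cultured in F12 medium with 1% fetal bovine serum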
[4] = target: recombinant DYRK1A kinase (Homo sapiens (Human), UniProt Q13627); test: DYRK1A kinase assay (Ser/Thr 18 peptide Z-lyte FRET); format: biochemical; settings: 30 μM ATP, 1 h room temperature;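 note: Read-out is the coumarin to fluorescein emission ratio, referenced to unphosphorylated (0%) and phosphorylated (100%) Ser/Thr 18 peptide controls, values from dose-response curves by non-linear regression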
[5] = system: IL-6; test: IL-6 inhibition in LPS-stimulated human peripheral blood mononuclear cells (HTRF); format: cell-based; settings: Homo sapiens, PBMC; for EC50: Table 9, huPBMCs, LPS 50 ng/mL, 22 hours, dose-response starting from 10 μM; for inhibition at 10 µM: read-out: percent value in parentheses beside EC50 >10 μM;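 for all read-outs here: IL-6 detected by HTRF with an XL665- and Cryptate-labelled anti-IL-6 antibody pair, samples run in duplicate, EC50 obtained from a four-parameter Levenberg-Marquardt curve fit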
Method: After 22 hour incubation, a mixture of anti-IL6 XL665 and anti-IL-6 Cryptate diluted in reconstitution buffer (Catalog #62IL6PEC, Cisbio Inc., Bedford, Mass.) was added to each well. […] All samples were processed in duplicate. […] EC50 was determined using software generated by Dotmatics Limited (Windhill Bishops Stortford Herts, UK) using the Levenberg-Marquardt 4 parameter fitting procedure with finite different gradients.

[6] = system: Wnt pathway (Sp5-Luc reporter, TCF/LEF binding sites) in SW480 colon carcinoma cells; test: Screening assay for Wnt activity: Sp5-Luc reporter gene assay; format: cell-based, human; settings: Homo sapiens; for EC50: Sp5-Luc reporter, SW480 cells, 36 to 48 hours; for inhibition at 10 µM: SW480, read-out: percent inhibition at 10 μM;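 for all read-outs here: firefly luciferase luminescence read in stably transduced SW480 cells carrying the Sp5 promoter reporter with eight TCF/LEF sites, compounds given in 0.1% DMSO final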
Method: The screening assay for Wnt activity is described as follows.
Following incubation, 15 μl of BriteLite Plus luminescence reagent (Perkin Elmer) was added to each well of the 384-well assay plates. The plates were placed on an orbital shaker for 2 min and then luminescence was quantified using the Envision (Perkin Elmer) plate reader.

[7] = target: recombinant GSK3β kinase (Homo sapiens (Human), UniProt P49841); test: GSK3β kinase assay (Ser/Thr 09 peptide Z-lyte FRET); format: biochemical; settings: 46 μM ATP, 1 h room temperature;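 note: kinase activity read as coumarin to fluorescein emission ratio, 11-point threefold dilutions from 10 µM to 0.0003 µM in duplicate, unphosphorylated and phosphorylated peptide as 0% and 100% controls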
Chain of recombinant GSK3β kinase (P49841 whole entry): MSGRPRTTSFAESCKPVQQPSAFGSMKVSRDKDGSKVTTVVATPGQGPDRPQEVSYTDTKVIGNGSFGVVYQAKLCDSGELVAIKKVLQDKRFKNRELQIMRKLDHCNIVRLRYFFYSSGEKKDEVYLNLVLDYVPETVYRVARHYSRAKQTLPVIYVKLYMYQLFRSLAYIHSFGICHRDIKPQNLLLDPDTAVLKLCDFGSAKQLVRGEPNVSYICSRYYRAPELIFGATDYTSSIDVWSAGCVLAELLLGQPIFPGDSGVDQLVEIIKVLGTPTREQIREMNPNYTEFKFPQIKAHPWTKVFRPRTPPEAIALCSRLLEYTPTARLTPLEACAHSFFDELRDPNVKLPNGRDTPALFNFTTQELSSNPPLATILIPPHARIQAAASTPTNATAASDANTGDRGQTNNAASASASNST

With `Cn1cncc1-c1ccc2cnc(NC(=O)C3(F)CC3)cc2c1` [Compound 521, 1-Fluoro-N-(6-(1-methyl-1H-imidazol-5-yl)isoquinolin-3-yl)cyclopropane-1-carboxamide] the EC50 [1] was 3630 nM, the EC50 [2] was 1100 nM and the EC50 [3] was 1990 nM. It also gave an EC50 [4] of 1.6 nM, an EC50 [5] of 3250 nM and an EC50 [6] of 1800 nM. For the same molecule, the EC50 [7] was 234 nM.
`CN1CC2(CC(C(=O)Nc3cc4cc(-c5cncn5C)ccc4cn3)C2)C1` [Compound 523, 2-Methyl-N-(6-(1-methyl-1H-imidazol-5-yl)isoquinolin-3-yl)-2-azaspiro[3.3] heptane-6-carboxamide] was tested, and the EC50 [1] was 447 nM, the EC50 [2] was 2200 nM and the EC50 [3] was > 10000 nM. It also gave an inhibition at 10 µM [3] of 32.6%, an EC50 [4] of 2.9 nM and an EC50 [5] of 201 nM. The EC50 [6] was 683 nM and the EC50 [7] was 42 nM.
With `Cn1cncc1-c1ccc2cnc(NC(=O)C3(F)CCCCC3)cc2c1` [Compound 527, 1-Fluoro-N-(6-(1-methyl-1H-imidazol-5-yl)isoquinolin-3-yl)cyclohexane-1-carboxamide] the EC50 [1] was > 10000 nM, the inhibition at 10 µM [1] was 43.6% and the EC50 [2] was 2400 nM. The EC50 [3] was > 10000 nM, the inhibition at 10 µM [3] was 37.3% and the EC50 [4] was 9.8 nM. For the same molecule, the EC50 [5] was 9980 nM, the inhibition at 10 µM [6] was 23.5% and the EC50 [6] was > 10000 nM. For the same molecule, the EC50 [7] was 415 nM.
Work on `CO[C@H]1CC[C@H](C(=O)Nc2cc3cc(-c4cncn4C)ccc3cn2)CC1` [Compound 528, trans-4-Methoxy-N-(6-(1-methyl-1H-imidazol-5-yl)isoquinolin-3-yl) cyclohexane-1-carboxamide] yielded an EC50 [1] of 1420 nM, an EC50 [2] of 323 nM and an EC50 [3] of 103 nM. The EC50 [4] was 0.8 nM, the EC50 [5] was 1780 nM and the EC50 [6] was 1150 nM. The EC50 [7] was 96 nM.
`Cn1cncc1-c1ccc2cnc(NC(=O)[C@H]3CC[C@H](CO)CC3)cc2c1` [Compound 531, trans-4-(Hydroxymethyl)-N-(6-(1-methyl-1H-imidazol-5-yl)isoquinolin-3-yl)cyclohexane-1-carboxamide] was tested, and the EC50 [1] was 989 nM, the EC50 [2] was 146 nM and the EC50 [3] was 153 nM. It also gave an EC50 [4] of 0.9 nM, an EC50 [5] of 698 nM and an EC50 [6] of 1060 nM. The EC50 [7] was 50 nM.
`Cn1cncc1-c1ccc2cnc(NC(=O)C3CNC3)cc2c1` [Compound 535, N-(6-(1-Methyl-1H-imidazol-5-yl)isoquinolin-3-yl)azetidine-3-carboxamide] was tested, and the EC50 [1] was > 10000 nM, the inhibition at 10 µM [1] was 42% and the EC50 [2] was 6200 nM. For the same molecule, the EC50 [3] was > 10000 nM, the inhibition at 10 µM [3] was 17.7% and the EC50 [4] was 4.5 nM. For the same molecule, the inhibition at 10 µM [5] was 3.1%, the EC50 [5] was > 10000 nM and the inhibition at 10 µM [6] was 44.9%. For the same molecule, the EC50 [6] was > 10000 nM and the EC50 [7] was 87 nM.
Work on `Cn1cncc1-c1ccc2cnc(NC(=O)[C@H]3CCCO3)cc2c1` [Compound 537, (R)—N-(6-(1-Methyl-1H-imidazol-5-yl)isoquinolin-3-yl)tetrahydrofuran-2-carboxamide] yielded an EC50 [1] of 8300 nM, an EC50 [2] of 451 nM and an EC50 [3] of 599 nM. For the same molecule, the EC50 [4] was 8.9 nM, the EC50 [5] was 1240 nM and the EC50 [6] was 4800 nM. For the same molecule, the EC50 [7] was 95 nM.
Molecule `COCCN1CCC(C(=O)Nc2cc3cc(-c4cncn4C)ccc3cn2)CC1` [Compound 547, 1-(2-Methoxyethyl)-N-(6-(1-methyl-1H-imidazol-5-yl)isoquinolin-3-yl) piperidine-4-carboxamide] has an EC50 [1] of 931 nM, an EC50 [2] of 379 nM and an EC50 [3] of 160 nM. It also gave an EC50 [4] of 3.4 nM, an EC50 [5] of 1120 nM and an EC50 [6] of 2230 nM. It also gave an EC50 [7] of 104 nM.
`CC(C)CN1CCC(C(=O)Nc2cc3cc(-c4cncn4C)ccc3cn2)CC1` [Compound 554, 1-Isobutyl-N-(6-(1-methyl-1H-imidazol-5-yl)isoquinolin-3-yl)piperidine-4-carboxamide] showed an EC50 [1] of 366 nM, an EC50 [2] of 95 nM and an EC50 [3] of 190 nM. It also gave an EC50 [4] of 1.4 nM, an EC50 [5] of 439 nM and an EC50 [6] of 272 nM. The EC50 [7] was 38 nM.
`Cn1cncc1-c1ccc2cnc(NC(=O)C3CCN(S(C)(=O)=O)CC3)cc2c1` [Compound 561, N-(6-(1-Methyl-1H-imidazol-5-yl)isoquinolin-3-yl)-1-(methylsulfonyl) piperidine-4-carboxamide] showed an EC50 [1] of 924 nM, an EC50 [2] of 395 nM and an EC50 [3] of 600 nM. The EC50 [4] was 1.5 nM, the EC50 [5] was 634 nM and the EC50 [6] was 1460 nM. It also gave an EC50 [7] of 12 nM.
With `CC(C(=O)Nc1cc2cc(-c3cncn3C)ccc2cn1)N1CCCC1` (stereo not shown) [Compound 579, N-(6-(1-Methyl-1H-imidazol-5-yl)isoquinolin-3-yl)-2-(pyrrolidin-1-yl) propanamide] the EC50 [1] was 954 nM, the EC50 [2] was 62 nM and the EC50 [3] was 167 nM. The EC50 [4] was 25 nM, the EC50 [5] was 1020 nM and the EC50 [6] was 899 nM. The EC50 [7] was 48 nM.
For `CC(C)CN1CCC(C(=O)Nc2cc3cc(-c4cn[nH]c4)ccc3cn2)CC1` [Compound 643, N-(6-(1H-Pyrazol-4-yl)isoquinolin-3-yl)-1-isobutylpiperidine-4-carboxamide], the EC50 [1] was 115 nM, the EC50 [2] was 49 nM and the EC50 [3] was 138 nM. The EC50 [4] was 1.8 nM, the EC50 [5] was 129 nM and the EC50 [6] was 129 nM. It also gave an EC50 [7] of 49 nM.
`O=C(Nc1cc2cc(-c3cncs3)ccc2cn1)C1CC(F)(F)C1` [Compound 699, 3,3-Difluoro-N-(6-(thiazol-5-yl)isoquinolin-3-yl)cyclobutane-1-carboxamide] was tested, and the EC50 [1] was 834 nM, the EC50 [2] was 423 nM and the EC50 [3] was 234 nM. The EC50 [4] was 2.1 nM, the EC50 [5] was 410 nM and the EC50 [6] was 541 nM. The EC50 [7] was 24 nM.
Molecule `CN1CC2(CC(C(=O)Nc3cc4cc(-c5cncs5)ccc4cn3)C2)C1` [Compound 700, 2-Methyl-N-(6-(thiazol-5-yl)isoquinolin-3-yl)-2-azaspiro[3.3]heptane-6-carboxamide] has an EC50 [1] of 623 nM, an EC50 [2] of 513 nM and an EC50 [3] of 275 nM. The EC50 [4] was 2.2 nM, the EC50 [5] was 380 nM and the EC50 [6] was 771 nM. It also gave an EC50 [7] of 49 nM.
In the case of `O=C(Nc1cc2cc(-c3cncs3)ccc2cn1)C1(F)CCCCC1` [Compound 704, 1-Fluoro-N-(6-(thiazol-5-yl)isoquinolin-3-yl)cyclohexane-1-carboxamide], the EC50 [1] is reported as > 10000 nM, the inhibition at 10 µM [1] is reported as 18.1% and the EC50 [2] is reported as 10000 nM. The EC50 [3] was 4380 nM, the EC50 [4] was 8.2 nM and the inhibition at 10 µM [5] was 4.8%. The EC50 [5] was > 10000 nM, the inhibition at 10 µM [6] was 10.2% and the EC50 [6] was > 10000 nM. The EC50 [7] was 1830 nM.
For `CN(C)[C@H]1CC[C@H](C(=O)Nc2cc3cc(-c4cncs4)ccc3cn2)CC1` [Compound 707, trans-4-(Dimethylamino)-N-(6-(thiazol-5-yl)isoquinolin-3-yl)cyclohexane-1-carboxamide], the EC50 [1] was 947 nM, the EC50 [2] was 449 nM and the EC50 [3] was 4240 nM. It also gave an EC50 [4] of 0.9 nM, an EC50 [5] of 446 nM and an EC50 [6] of 472 nM. It also gave an EC50 [7] of 46 nM.
Molecule `O=C(Nc1cc2cc(-c3cncs3)ccc2cn1)[C@H]1CC[C@H](CN2CC(F)C2)CC1` [Compound 711, trans-4-((3-Fluoroazetidin-1-yl)methyl)-N-(6-(thiazol-5-yl)isoquinolin-3-yl)cyclohexane-1-carboxamide] has an EC50 [1] of 706 nM, an EC50 [2] of 443 nM and an EC50 [3] of 540 nM. It also gave an EC50 [4] of 1 nM, an EC50 [5] of 1080 nM and an EC50 [6] of 703 nM. It also gave an EC50 [7] of 67 nM.
For `O=C(Nc1cc2cc(-c3cncs3)ccc2cn1)C1CNC1` [Compound 713, N-(6-(Thiazol-5-yl)isoquinolin-3-yl)azetidine-3-carboxamide], the EC50 [1] was 6980 nM, the EC50 [2] was 5000 nM and the EC50 [3] was > 10000 nM. The inhibition at 10 µM [3] was 37.6%, the EC50 [4] was 3.1 nM and the EC50 [5] was 3630 nM. For the same molecule, the EC50 [6] was 9250 nM and the EC50 [7] was 98 nM.
For `CN1CCC(C(=O)Nc2cc3cc(-c4cncs4)ccc3cn2)CC1` [Compound 718, 1-Methyl-N-(6-(thiazol-5-yl)isoquinolin-3-yl)piperidine-4-carboxamide], the EC50 [1] was 483 nM, the EC50 [2] was 294 nM and the EC50 [3] was 168 nM. The EC50 [4] was 1.3 nM, the EC50 [5] was 406 nM and the EC50 [6] was 589 nM. The EC50 [7] was 79 nM.
`O=C(Nc1cc2cc(-c3cncs3)ccc2cn1)C1CCN(C2COC2)CC1` [Compound 737, 1-(Oxetan-3-yl)-N-(6-(thiazol-5-yl)isoquinolin-3-yl)piperidine-4-carboxamide] gave an EC50 [1] of 4340 nM, an EC50 [2] of 865 nM and an EC50 [3] of 80 nM. It also gave an EC50 [4] of 1 nM, an EC50 [5] of 1180 nM and an EC50 [6] of 1290 nM. It also gave an EC50 [7] of 62 nM.
In the case of `O=C(Nc1cc2cc(-c3cncs3)ccc2cn1)C1CCN(C(=O)CN2CCCC2)CC1` [Compound 741, 1-(2-(Pyrrolidin-1-yl)acetyl)-N-(6-(thiazol-5-yl)isoquinolin-3-yl)piperidine-4-carboxamide], the EC50 [1] is reported as 462 nM, the EC50 [2] is reported as 528 nM and the EC50 [3] is reported as 175 nM. The EC50 [4] was 0.9 nM, the EC50 [5] was 380 nM and the EC50 [6] was 444 nM. For the same molecule, the EC50 [7] was 107 nM.
`CN1CCC(N2CCC(C(=O)Nc3cc4cc(-c5cncs5)ccc4cn3)CC2)CC1` [Compound 743, 1′-Methyl-N-(6-(thiazol-5-yl)isoquinolin-3-yl)-[1,4′-bipiperidine]-4-carboxamide] showed an EC50 [1] of 1540 nM, an EC50 [2] of 432 nM and an EC50 [3] of 447 nM. The EC50 [4] was 1.3 nM, the EC50 [5] was 1130 nM and the EC50 [6] was 9490 nM. The EC50 [7] was 63 nM.
